Experiments:
Experiment in all cases: Test D controlled growth environment herbicide test, pre- and postemergence
Assay type in all cases: in vivo
[1] = tested on: bromegrass, downy (downy bromegrass, Bromus tectorum)
In short: (§1)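 Species sown in silt loam and sprayed preemergence, or grown in peat-based medium to 2–18 cm (1- to 4-leaf stage) and sprayed postemergence, with compounds in non-phytotoxic solvent plus surfactant. Visual injury scored versus controls after 14–21 d in a controlled environment, 0 (no effect) to 100 (complete control).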

[2] = tested on: barley, winter (winter barley, Hordeum vulgare)
In short: as §1

[3] = tested on: chamomile (scentless chamomile, Matricaria inodora)
In short: as §1

[4] = tested on: pigweed (Amaranthus retroflexus)
In short: as §1

[5] = tested on: field violet (Viola arvensis)
In short: as §1

kochia (Kochia scoparia) = tested on: kochia (Kochia scoparia)
In short: as §1

[6] = tested on: foxtail, green (green foxtail, Setaria viridis)
In short: as §1

[7] = tested on: galium (catchweed bedstraw, Galium aparine)
In short: as §1

[8] = tested on: bluegrass (annual bluegrass, Poa annua)
In short: as §1

[9] = tested on: chickweed (common chickweed, Stellaria media)
In short: as §1

[10] = tested on: blackgrass (Alopecurus myosuroides)
In short: as §1

[11] = tested on: wheat, winter (winter wheat, Triticum aestivum)
In short: as §1

[12] = tested on: lambsquarters (Chenopodium album)
In short: as §1

[13] = Postemergence, 31 g ai/ha, scale 0 to 100 (0 no effect, 100 complete control)
[14] = Postemergence, 125 g ai/ha, visual rating on scale 0 (no effect) to 100 (complete control), 14 to 21 d
[15] = Postemergence, 250 g ai/ha, scale 0 to 100 (0 no effect, 100 complete control)
[16] = Preemergence, 62 g ai/ha, scale 0 to 100 (0 no effect, 100 complete control)
[17] = Preemergence, 125 g ai/ha, scale 0 to 100 (0 no effect, 100 complete control)
[18] = Preemergence, 250 g ai/ha, scale 0 to 100, 0 no effect, 100 complete control
[19] = postemergence, 62 g ai/ha, scale 0 to 100, 0 no effect, 100 complete control

## Cc1nn(C)c(=O)c(-c2ccc(Br)c3ccccc23)c1O [Compound 75]
[1]; [13]
  Bromegrass, Downy plant response rating: 0
[1]; [14]
  Plant response rating, Bromegrass, Downy: 15
[1]; [15]
  Plant response rating, Bromegrass, Downy: 30
[1]; Preemergence, 31 g ai/ha
  Plant response rating (scale of 0 to 100), Bromegrass, Downy: 0
[1]; [16]
  Plant response rating, Bromegrass, Downy: 0
[1]; [17]
  Plant response rating, Bromegrass, Downy: 10
[1]; [18]
  Plant response rating, Bromegrass, Downy: 25
[1]; [19]
  Plant response rating, Bromegrass, Downy: 0
[2]; [13]
  Barley, Winter plant response rating: 0
[2]; [14]
  Plant response rating, Barley, Winter: 0
[2]; [15]
  Plant response rating, Barley, Winter: 5
[2]; Preemergence, 31 g ai/ha
  Plant response rating (scale of 0 to 100), Barley, Winter: 0
[2]; [16]
  Plant response rating, Barley, Winter: 0
[2]; [17]
  Plant response rating, Barley, Winter: 0
[2]; [18]
  Plant response rating, Barley, Winter: 0
[2]; [19]
  Plant response rating, Barley, Winter: 0
[3]; [13]
  Chamomile plant response rating: 80
[3]; [14]
  Plant response rating, Chamomile: 85
[3]; [15]
  Plant response rating, Chamomile: 100
[3]; [19]
  Plant response rating, Chamomile: 90
[4]; [13]
  Pigweed plant response rating: 100
[4]; [14]
  Plant response rating, Pigweed: 100
[4]; [15]
  Plant response rating, Pigweed: 100
[4]; Preemergence, 31 g ai/ha
  Plant response rating (scale of 0 to 100), Pigweed: 85
[4]; [16]
  Plant response rating, Pigweed: 100
[4]; [17]
  Plant response rating, Pigweed: 100
[4]; [18]
  Plant response rating, Pigweed: 100
[4]; [19]
  Plant response rating, Pigweed: 100
[5]; [13]
  Field Violet plant response rating: 95
[5]; [14]
  Plant response rating, Field Violet: 95
[5]; [15]
  Plant response rating, Field Violet: 100
[5]; Preemergence, 31 g ai/ha
  Plant response rating (scale of 0 to 100), Field Violet: 95
[5]; [16]
  Plant response rating, Field Violet: 100
[5]; [17]
  Plant response rating, Field Violet: 100
[5]; [18]
  Plant response rating, Field Violet: 100
[5]; [19]
  Plant response rating, Field Violet: 100
Kochia (Kochia scoparia); [13]
  Kochia plant response rating: 95
Kochia (Kochia scoparia); [14]
  Plant response rating, Kochia: 100
Kochia (Kochia scoparia); [15]
  Plant response rating, Kochia: 100
Kochia (Kochia scoparia); Preemergence, 31 g ai/ha
  Plant response rating (scale of 0 to 100), Kochia: 65
Kochia (Kochia scoparia); [16]
  Plant response rating, Kochia: 80
Kochia (Kochia scoparia); [17]
  Plant response rating, Kochia: 80
Kochia (Kochia scoparia); [18]
  Plant response rating, Kochia: 100
Kochia (Kochia scoparia); [19]
  Plant response rating, Kochia: 100
[6]; [13]
  Foxtail, Green plant response rating: 0
[6]; [14]
  Plant response rating, Foxtail, Green: 55
[6]; [15]
  Plant response rating, Foxtail, Green: 60
[6]; Preemergence, 31 g ai/ha
  Plant response rating (scale of 0 to 100), Foxtail, Green: 15
[6]; [16]
  Plant response rating, Foxtail, Green: 35
[6]; [17]
  Plant response rating, Foxtail, Green: 55
[6]; [18]
  Plant response rating, Foxtail, Green: 100
[6]; [19]
  Plant response rating, Foxtail, Green: 25
[7]; [13]
  Galium plant response rating: 90
[7]; [14]
  Plant response rating, Galium: 95
[7]; [15]
  Plant response rating, Galium: 100
[7]; Preemergence, 31 g ai/ha
  Plant response rating (scale of 0 to 100), Galium: 15
[7]; [16]
  Plant response rating, Galium: 50
[7]; [17]
  Plant response rating, Galium: 60
[7]; [18]
  Plant response rating, Galium: 80
[7]; [19]
  Plant response rating, Galium: 95
[8]; [13]
  Bluegrass plant response rating: 10
[8]; [14]
  Plant response rating, Bluegrass: 15
[8]; [15]
  Plant response rating, Bluegrass: 15
[8]; Preemergence, 31 g ai/ha
  Plant response rating (scale of 0 to 100), Bluegrass: 15
[8]; [16]
  Plant response rating, Bluegrass: 15
[8]; [17]
  Plant response rating, Bluegrass: 10
[8]; [18]
  Plant response rating, Bluegrass: 35
[8]; [19]
  Plant response rating, Bluegrass: 10
[9]; [13]
  Chickweed plant response rating: 100
[9]; [14]
  Plant response rating, Chickweed: 100
[9]; [15]
  Plant response rating, Chickweed: 100
[9]; Preemergence, 31 g ai/ha
  Plant response rating (scale of 0 to 100), Chickweed: 90
[9]; [16]
  Plant response rating, Chickweed: 100
[9]; [17]
  Plant response rating, Chickweed: 95
[9]; [18]
  Plant response rating, Chickweed: 100
[9]; [19]
  Plant response rating, Chickweed: 100
[10]; [13]
  Blackgrass plant response rating: 15
[10]; [14]
  Plant response rating, Blackgrass: 65
[10]; [15]
  Plant response rating, Blackgrass: 70
[10]; Preemergence, 31 g ai/ha
  Plant response rating (scale of 0 to 100), Blackgrass: 15
[10]; [16]
  Plant response rating, Blackgrass: 30
[10]; [17]
  Plant response rating, Blackgrass: 40
[10]; [18]
  Plant response rating, Blackgrass: 55
[10]; [19]
  Plant response rating, Blackgrass: 20
[11]; [13]
  Wheat, Winter plant response rating: 0
[11]; [14]
  Plant response rating, Wheat, Winter: 0
[11]; [15]
  Plant response rating, Wheat, Winter: 0
[11]; Preemergence, 31 g ai/ha
  Plant response rating (scale of 0 to 100), Wheat, Winter: 0
[11]; [16]
  Plant response rating, Wheat, Winter: 0
[11]; [17]
  Plant response rating, Wheat, Winter: 20
[11]; [18]
  Plant response rating, Wheat, Winter: 15
[11]; [19]
  Plant response rating, Wheat, Winter: 0
[12]; [13]
  Lambsquarters plant response rating: 100
[12]; [14]
  Plant response rating, Lambsquarters: 100
[12]; [15]
  Plant response rating, Lambsquarters: 100
[12]; Preemergence, 31 g ai/ha
  Plant response rating (scale of 0 to 100), Lambsquarters: 95
[12]; [16]
  Plant response rating, Lambsquarters: 95
[12]; [17]
  Plant response rating, Lambsquarters: 100
[12]; [18]
  Plant response rating, Lambsquarters: 100
[12]; [19]
  Plant response rating, Lambsquarters: 100
